What was measured:
[1] = test system: MN4 (DNA, aptamer) GGCGACAAGGAAAATCCTTCAACGAAGTGGGTCGCC; experiment: quinine fluorescence quenching; settings: PBS, 5 mM MgCl2; pH 7.4, 20 °C; 0.1 μM quinine; three-parameter fit; per site
[2] = test system: A (boxcar A) (DNA, aptamer) CGTCTAATCTAATCAGGCGACAAGGAAAATCCTTCAACGAAGTGGGTCGCCCTAACTCTCTATCCG; experiment: quinine fluorescence quenching; settings: PBS, 5 mM MgCl2; pH 7.4, 20 °C; 0.1 μM quinine; three-parameter fit; per site

KD [1]: 280 ± 60 nM | KD [2]: 380 ± 130 nM
SMILES: C=C[C@H]1CN2CC[C@H]1C[C@H]2[C@H](O)c1ccnc2ccc(OC)cc12
